Experimental data reported in patent US20020137929A1, “1 - (3-heterocyclylphenyl) isothiourea, -isourea, -guanidine and -amidine herbicidal agents” (Intellectual Property Department, BASF Aktiengesellschaft, priority 1998, published 2002).

Tests used:
GALAP (Galium) [1] = assay: Preemergence herbicidal evaluation; format: in vivo, Galium aparine; settings: rated 4-5 weeks after treatment
Outline: (§1)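 Test compound, dissolved in aqueous acetone, was sprayed over planted soil cups at an equivalent of about 0.0156 to 0.500 kg/ha; seeds had been mixed with potting soil. Greenhouse growth followed, with visual 0-9 scoring of injury at four to five weeks.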

[2] = system: CHEAL (Lambsquarters, Common); assay: Postemergence herbicidal evaluation; format: in vivo, Chenopodium album
Outline: (§2)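 Rate range approx. 0.0156–0.500 kg/ha. Foliar application at 40 psi to ~2-week seedlings; surfactant 0.5% TWEEN 20 in 50/50 acetone/water. Evaluation 4–5 wk post-treatment by 0–9 visual injury score, means of replicate tests.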

ZEAMX (Corn, Field) = assay: Preemergence herbicidal evaluation; format: in vivo, Zea mays; settings: rated 4-5 weeks after treatment
Outline: as §1

CYPSE (Flatsedge) [3] = assay: Preemergence weed control under flooded paddy conditions; format: in vivo, Cyperus serotinus; settings: rated 3-4 weeks after treatment
Outline: (§3)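 Seeds or propagules sown in top 0.5 cm of silt loam soil, flooded 1.5 to 3 cm above surface throughout. Compound in 50/50 v/v aqueous/acetone pipetted into flood water at about 0.0313 to 0.500 kg/ha. Visual 0-9 rating versus control after three to four weeks in greenhouse.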

GALAP (Galium) [4] = assay: Postemergence herbicidal evaluation; format: in vivo, Galium aparine
Outline: as §2

CASOB (Sicklepod) [5] = assay: Postemergence herbicidal evaluation; format: in vivo, Cassia obtusifolia
Outline: as §2

CASOB (Sicklepod) [6] = assay: Preemergence herbicidal evaluation; format: in vivo, Cassia obtusifolia; settings: rated 4-5 weeks after treatment
Outline: as §1

ORYSAT (Rice, Tebonnet) = assay: Postemergence herbicidal evaluation; format: in vivo, Oryza sativa, (L.) Tebonnet
Outline: as §2

ECHCG (Barnyardgrass) = assay: Postemergence herbicidal evaluation; format: in vivo, Echinochloa crus-galli
Outline: as §2

CYPIR (Rice Flatsedge) = assay: Preemergence weed control under flooded paddy conditions; format: in vivo, Cyperus iria; settings: rated 3-4 weeks after treatment
Outline: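 Ratings on a 0-9 visual scale cover stand, vigor, malformation, size, chlorosis and overall appearance relative to a control, taken three to four weeks post-treatment. Application was into flood water over freshly sown silt loam at roughly 0.0313 to 0.500 kg/ha.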

[7] = system: SAGPY (Arrowhead (Pygmaea)); assay: as above; format: in vivo, Sagittaria pygmaea; settings: rated 3-4 weeks after treatment
Outline: as §3

[8] = system: GLXMAW (Soybean, Williams); assay: Postemergence herbicidal evaluation; format: in vivo, Glycine max, (L.) Merr. cv Williams
Outline: as §2

CYPSE (Flatsedge) [9] = assay: Postemergence weed control under flooded paddy conditions; format: in vivo, Cyperus serotinus; settings: postemergence weeds, 3-4 weeks after treatment
Outline: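 Injury ratings (0–9 scale covering stand, vigor, malformation, size, chlorosis and overall appearance versus control) were made three to four weeks after treatment. Test material, about 0.0313 to 0.500 kg/ha a.i. in 50/50 v/v aqueous/acetone, was added to flood water 1.5 to 3 cm deep over 3 to 5 cm weeds and 1.5 to 2.5 leaf rice.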

SETVI (Foxtail, Green) = assay: Postemergence herbicidal evaluation; format: in vivo, Setaria viridis
Outline: as §2

AMBEL (Ragweed, Common) = assay: Postemergence herbicidal evaluation; format: in vivo, Ambrosia artemisifolia
Outline: as §2

With `CCOC(=O)CCN1C(=O)CSC1=Nc1cc(-n2c(=O)cc(C(F)(F)F)n(C)c2=O)c(Cl)cc1Cl` [Compound 32, Ethyl 2-{{2,4-dichloro-5-[3,6-dihydro-3-methyl-2,6-dioxo-4-(trifluoromethyl)-1(2H)-pyrimidinyl]-phenyl}imino}-4-oxo-3-thiazolidinepropionate] the “Preemergence herbicidal rating GALAP” value (GALAP (Galium) [1]; rate 0.0156 kg/ha) was 0.0, the “Preemergence herbicidal rating GALAP” value (GALAP (Galium) [1]; rate 0.0313 kg/ha) was 0.0 and the “Preemergence herbicidal rating GALAP” value (GALAP (Galium) [1]; rate 0.0625 kg/ha) was 0.0. The “Preemergence herbicidal rating GALAP” value (GALAP (Galium) [1]; rate 0.1250 kg/ha) was 0.5, the “Preemergence herbicidal rating GALAP” value (GALAP (Galium) [1]; rate 0.2500 kg/ha) was 3.5 and the “Preemergence herbicidal rating GALAP” value (GALAP (Galium) [1]; rate 0.5000 kg/ha) was 7.0. The “Postemergence herbicidal rating CHEAL” value ([2]; Rate 0.0158 kg/ha) was 3.0, the “Postemergence herbicidal rating CHEAL” value ([2]; Rate 0.0313 kg/ha) was 0.0 and the “Postemergence herbicidal rating CHEAL” value ([2]; Rate 0.0625 kg/ha) was 2.0. For the same compound, the “Postemergence herbicidal rating CHEAL” value ([2]; Rate 0.1250 kg/ha) was 6.0, the “Preemergence herbicidal rating ZEAMX” value (ZEAMX (Corn, Field); rate 0.0156 kg/ha) was 0.0 and the “Preemergence herbicidal rating ZEAMX” value (ZEAMX (Corn, Field); rate 0.0313 kg/ha) was 0.0. The “Preemergence herbicidal rating ZEAMX” value (ZEAMX (Corn, Field); rate 0.0625 kg/ha) was 0.0, the “Preemergence herbicidal rating ZEAMX” value (ZEAMX (Corn, Field); rate 0.1250 kg/ha) was 0.5 and the “Preemergence herbicidal rating ZEAMX” value (ZEAMX (Corn, Field); rate 0.2500 kg/ha) was 4.5. The “Preemergence herbicidal rating ZEAMX” value (ZEAMX (Corn, Field); rate 0.5000 kg/ha) was 6.0, the “Herbicidal rating CYPSE” value (CYPSE (Flatsedge) [3]; 0.1250 kg/ha) was 0.0 and the “Herbicidal rating CYPSE” value (CYPSE (Flatsedge) [3]; 0.2500 kg/ha) was 0.0. For the same compound, the “Postemergence herbicidal rating GALAP” value (GALAP (Galium) [4]; Rate 0.0158 kg/ha) was 0.0, the “Postemergence herbicidal rating GALAP” value (GALAP (Galium) [4]; Rate 0.0313 kg/ha) was 0.0 and the “Postemergence herbicidal rating GALAP” value (GALAP (Galium) [4]; Rate 0.0625 kg/ha) was 0.0. The “Postemergence herbicidal rating GALAP” value (GALAP (Galium) [4]; Rate 0.1250 kg/ha) was 2.0, the “Postemergence herbicidal rating CASOB” value (CASOB (Sicklepod) [5]; Rate 0.0158 kg/ha) was 0.0 and the “Postemergence herbicidal rating CASOB” value (CASOB (Sicklepod) [5]; Rate 0.0313 kg/ha) was 0.0. For the same compound, the “Postemergence herbicidal rating CASOB” value (CASOB (Sicklepod) [5]; Rate 0.0625 kg/ha) was 0.0, the “Postemergence herbicidal rating CASOB” value (CASOB (Sicklepod) [5]; Rate 0.1250 kg/ha) was 3.0 and the “Preemergence herbicidal rating CASOB” value (CASOB (Sicklepod) [6]; rate 0.0156 kg/ha) was 0.5. The “Preemergence herbicidal rating CASOB” value (CASOB (Sicklepod) [6]; rate 0.0313 kg/ha) was 0.0, the “Preemergence herbicidal rating CASOB” value (CASOB (Sicklepod) [6]; rate 0.0625 kg/ha) was 0.0 and the “Preemergence herbicidal rating CASOB” value (CASOB (Sicklepod) [6]; rate 0.1250 kg/ha) was 0.0. The “Preemergence herbicidal rating CASOB” value (CASOB (Sicklepod) [6]; rate 0.2500 kg/ha) was 0.0, the “Preemergence herbicidal rating CASOB” value (CASOB (Sicklepod) [6]; rate 0.5000 kg/ha) was 0.0 and the “Postemergence herbicidal rating ORYSAT” value (ORYSAT (Rice, Tebonnet); Rate 0.0158 kg/ha) was 1.0. For the same compound, the “Postemergence herbicidal rating ORYSAT” value (ORYSAT (Rice, Tebonnet); Rate 0.0313 kg/ha) was 2.0, the “Postemergence herbicidal rating ORYSAT” value (ORYSAT (Rice, Tebonnet); Rate 0.0625 kg/ha) was 3.0 and the “Postemergence herbicidal rating ORYSAT” value (ORYSAT (Rice, Tebonnet); Rate 0.1250 kg/ha) was 3.5. The “Postemergence herbicidal rating ECHCG” value (ECHCG (Barnyardgrass); Rate 0.0158 kg/ha) was 0.0, the “Postemergence herbicidal rating ECHCG” value (ECHCG (Barnyardgrass); Rate 0.0313 kg/ha) was 0.0 and the “Postemergence herbicidal rating ECHCG” value (ECHCG (Barnyardgrass); Rate 0.0625 kg/ha) was 0.0. For the same compound, the “Postemergence herbicidal rating ECHCG” value (ECHCG (Barnyardgrass); Rate 0.1250 kg/ha) was 2.0, the “Herbicidal rating CYPIR” value (CYPIR (Rice Flatsedge); 0.1250 kg/ha) was 0.0 and the “Herbicidal rating CYPIR” value (CYPIR (Rice Flatsedge); 0.2500 kg/ha) was 0.0. For the same compound, the “Herbicidal rating SAGPY” value ([7]; 0.1250 kg/ha) was 0.0, the “Herbicidal rating SAGPY” value ([7]; 0.2500 kg/ha) was 0.0 and the “Postemergence herbicidal rating GLXMAW” value ([8]; Rate 0.0158 kg/ha) was 3.5. For the same compound, the “Postemergence herbicidal rating GLXMAW” value ([8]; Rate 0.0313 kg/ha) was 5.5, the “Postemergence herbicidal rating GLXMAW” value ([8]; Rate 0.0625 kg/ha) was 6.0 and the “Postemergence herbicidal rating GLXMAW” value ([8]; Rate 0.1250 kg/ha) was 6.0. For the same compound, the “Herbicidal rating CYPSE” value (CYPSE (Flatsedge) [9]; rate 0.1250 kg/ha) was 0.0, the “Herbicidal rating CYPSE” value (CYPSE (Flatsedge) [9]; rate 0.2500 kg/ha) was 0.0 and the “Postemergence herbicidal rating SETVI” value (SETVI (Foxtail, Green); Rate 0.0158 kg/ha) was 0.0. For the same compound, the “Postemergence herbicidal rating SETVI” value (SETVI (Foxtail, Green); Rate 0.0313 kg/ha) was 0.0, the “Postemergence herbicidal rating SETVI” value (SETVI (Foxtail, Green); Rate 0.0625 kg/ha) was 0.0 and the “Postemergence herbicidal rating SETVI” value (SETVI (Foxtail, Green); Rate 0.1250 kg/ha) was 7.0. The “Postemergence herbicidal rating AMBEL” value (AMBEL (Ragweed, Common); Rate 0.0158 kg/ha) was 3.0, the “Postemergence herbicidal rating AMBEL” value (AMBEL (Ragweed, Common); Rate 0.0313 kg/ha) was 0.0 and the “Postemergence herbicidal rating AMBEL” value (AMBEL (Ragweed, Common); Rate 0.0625 kg/ha) was 3.0. The “Postemergence herbicidal rating AMBEL” value (AMBEL (Ragweed, Common); Rate 0.1250 kg/ha) was 9.0.
